Molecular target: T1, Dihydroorotate dehydrogenase (quinone), mitochondrial (Plasmodium falciparum (isolate 3D7), UniProt Q08210)
T1 sequence (Q08210 whole entry): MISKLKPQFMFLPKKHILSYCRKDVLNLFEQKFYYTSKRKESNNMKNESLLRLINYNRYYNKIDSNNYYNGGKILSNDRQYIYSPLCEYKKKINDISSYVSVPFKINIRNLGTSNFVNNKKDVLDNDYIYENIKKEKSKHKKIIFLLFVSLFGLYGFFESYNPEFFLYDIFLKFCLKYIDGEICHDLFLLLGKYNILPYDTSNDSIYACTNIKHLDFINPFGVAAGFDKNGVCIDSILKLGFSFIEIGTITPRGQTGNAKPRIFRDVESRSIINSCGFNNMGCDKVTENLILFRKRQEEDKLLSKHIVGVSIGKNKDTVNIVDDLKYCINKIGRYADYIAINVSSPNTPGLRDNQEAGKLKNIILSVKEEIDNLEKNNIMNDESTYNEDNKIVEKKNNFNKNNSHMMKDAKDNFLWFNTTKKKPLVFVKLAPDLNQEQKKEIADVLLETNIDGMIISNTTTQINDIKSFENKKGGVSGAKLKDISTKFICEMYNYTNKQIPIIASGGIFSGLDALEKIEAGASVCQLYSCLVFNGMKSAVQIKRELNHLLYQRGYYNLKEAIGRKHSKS
Assay: DHODH Inhibition Assay
Settings: pH 8; 20 °C
Experimental: The assays were carried out by using a colorimetric DCIP method, which uses the colorimetric reagent 2, 6-dichlorophenolindophenol as the final electron acceptor. DCIP reduction is stoichiometrically equivalent to oxidation of dihydroorotate. Changes in absorbance were quantified on a plate reader and data were analyzed to measure the reduction of DCIP as a decrease in absorbance at 600 nm.

SMILES: Cc1cc(Nc2ccc(C(N)=O)cc2)n2ncnc2n1 [4-({5-methyl-[1,2,4]triazolo[1,5-a]pyrimidin-7-yl}amino)benzamide]
- IC50: > 200 µM

SMILES: Cc1cc(Nc2ccccc2)n2ncnc2n1 [JMC521864 Compund DSM12]
- IC50: > 100 µM

Reference: BindingDB's records for doi:10.1021/jm8001026 (University of Texas At Dallas, 2008)
